Experiment [1] relates to HIV-1 isolates selected for resistance to DSB. The experiment can be described thus: Virus replication assay in H9 cells (p24 ELISA), DSB-resistant and parental viruses. The experiment is classed as cell-based. The protocol:
Virus stocks derived as described above were further analyzed both phenotypically and genotypically to characterize the nature of their drug-resistance. The resistance of the viruses to 3-O-(3′,3′-dimethylsuccinyl)-betulinic acid (DSB) was determined in virus replication assays. Briefly, the virus stocks were first titered in H9 cells by quantitating the levels of p24 (by ELISA) in cultures 8 days after infection with serial 4-fold dilutions of virus. Virus input was then normalized for a second assay in which each virus is cultured for 8 days in the presence of serial 4-fold dilutions of drug. The IC50 for each virus was determined as the dilution of drug that reduced the p24 endpoint level by 50% as compared to the no-drug control. […] In a subsequent series of experiments, the A364V mutation was engineered into the HIV-1 NL4-3 proviral DNA, which was subsequently transfected into HeLa cells. Resulting virus was collected and used to test the activity of DSB in a viral replication assay, as described above.

The subject of experiment [2] is HIV-1 infected MAGI cells. It is filed as cell-based. The following applies: HIV-1 infected MAGI cells. An excerpt:
To distinguish the inhibitory activity of DSB against early and late replication targets, a multinuclear activation of a galactosidase indicator (MAGI) assay was used. In this assay, the targets are HeLa cells stably expressing CD4, CXCR4, CCR5 and a reporter construct consisting of the—galactosidase gene (modified to localize to the nucleus) driven by a truncated HIV-1 LTR. Infection of these cells results in expression of Tat that drives activation of the β-galactosidase reporter gene. Expression of β-galactosidase in infected cells is detected using the chromogenic substrate X-gal.

Experiment [3] concerns primary Clade B HIV-1 isolates. The experiment can be described thus: Virus inhibition assay, primary HIV-1 isolates in PBMC, p24 endpoint. It is filed as cell-based. The protocol: A robust virus inhibition assay was used to evaluate the anti-viral activity of DSB against primary HIV-1 isolates propagated in PMBC. Briefly, serial dilutions of DSB were made in medium into 96-well tissue culture plates. 25-250 TCID50 of virus and 5×10^5 PHA-stimulated PBMCs were added to each well. On days 1, 3 and 5 post-infection, media was removed from each well and replaced with fresh media containing DSB at the appropriate concentration. On day 7 post-infection, culture supernatant was removed from each well for p24 detection of virus replication and 50% inhibitory concentrations (IC50) were calculated by standard methods.

A further experiment deals with HIV-1IIIB. The experiment can be described thus: Virus production and Gag processing (western blot) in chronically infected H9/HIV-1IIIB cells. The experiment is classed as cell-based. The protocol: FIG. 2. […] Gag proteins were visualized using HIV-Ig (HIV-1) or monkey anti-SIVmac251 serum (HIV-2 and SIV; NIH AIDS Research and Reference Reagent Program).
In order to better define DSB's mechanism of action, a detailed examination was undertaken of the virus produced from HIV-1-infected cell lines treated with DSB. Briefly, H9 cells chronically infected with the HIV-1IIIB isolate were treated with DSB at 1 μg/mL for a period of 48 hrs. Indinavir was used as a control. At the 48 hr time-point, spent media was removed and fresh media containing compound was added. At 24, 48 and 72 hrs post fresh compound addition, both cells and supernatant were recovered for analysis. The level of virus in the culture supernatant was determined and western blots were used to characterize viral protein production in both cell-associated and cell-free virus. […] This defect took the form of an additional band in the western blots corresponding to p25 (FIG. 2). This p25 band results from the incomplete processing of the capsid CA-SP1 precursor. […] As discussed above, mutations at the p25 to p24 cleavage site that prevent processing are associated with defects in viral maturation and infectivity (Wiegers K. et al., J. Virol. 72:2846-54 (1998)).

In the next experiment the target is HIV-1 protease (Human immunodeficiency virus type 1 group M subtype B, UniProt P12497). It is filed as biochemical. Particulars: recombinant Gag, 50 μg/mL.

Molecules are shown by their SMILES. “Also recorded” adds a separate entry of the source. Where two headings read alike, the source gives them in different places. Some results are limits rather than exact numbers.

For `C=C(C)[C@@H]1CC[C@]2(C(=O)O)CC[C@]3(C)[C@H](CC[C@@H]4[C@@]5(C)CC[C@H](OC(=O)CC(C)(C)C(=O)O)C(C)(C)[C@@H]5CC[C@]43C)[C@@H]12` [DSB, 3-O-(3′,3′-dimethylsuccinyl)betulinic acid], the IC50 is 100 nM in experiment [1] (NL4-3 with engineered A364V mutation (DSB-resistant virus)); greater than 2000 nM in experiment [1] (two independently derived DSB-selected virus stocks); 20 nM in experiment [1] (virus cultured in parallel in the absence of drug); 10 nM in experiment [1] (wild-type NL4-3); 9.8 nM in experiment [3] (isolate 92HT599, co-receptor X4, PBMC, p24 day 7, read-out: IC50); 4.6 nM in experiment [3] (isolate 92US723, co-receptor R5/X4, PBMC, p24 day 7, read-out: IC50). Also, the IC50 in experiment [3] (isolate 3401N*, co-receptor R5/X4, PBMC, p24 day 7, read-out: IC50) turned out to be 12 nM; in experiment [3] (isolate 19101N*, co-receptor R5, PBMC, p24 day 7, read-out: IC50), 3.8 nM; in experiment [3] (isolate 22101N*, co-receptor R5/X4, PBMC, p24 day 7, read-out: IC50), 2.6 nM; in experiment [3] (isolate BZ167, co-receptor X4, PBMC, p24 day 7, read-out: IC50), 4 nM; in experiment [3] (isolate US1, co-receptor R5, PBMC, p24 day 7, read-out: IC50) it was 5.6 nM; in experiment [3] (mean over the panel of primary isolates, read-out: IC50, Mean), 6.1 nM. In addition, the “% Decrease (β-galactosidase expression)” value in experiment [2] amounted to 12%. In addition, the “Gag processing (p25 band in western blot)” value with HIV-1IIIB (1 μg/mL, cell-associated and cell-free virus) was “defect in Gag processing”. Besides, the “amount of virus produced” value in the experiment on HIV-1IIIB (1 μg/mL, chronically infected H9 cells) was “did not cause a significant reduction in the amount of virus produced”. For the same compound, the “effect on virus release” value in the experiment on HIV-1IIIB (a variety of experimental systems) is “does not have a significant effect on virus release”. In addition, the “effect on protease-mediated Gag protein processing” value at HIV-1 protease is recorded as “did not disrupt protease-mediated Gag protein processing; also recorded: does not disrupt the activity of HIV-1 protease”.
